Read-outs that look alike come from different tables or passages of the source.
Tests used:
HIV = test: In vitro antiviral assay for HIV; assay type: cell-based, human immunodeficiency virus; conditions: Human immunodeficiency virus 1, read-out: Antiviral Activities (EC50, μM) HIV, in vitro; (T) after a value means toxic
Protocol: (§1) The antiviral assays for HBV, (Doong et al., 1991, Proc. Natl. Acad. Sci. U.S.A. 88:8495-8499) HSV-1, (Bastow et al., 1983, Antimicrob. Agents Chemother. 23: 914-917) HSV-2, (Bastow et al., 1983, Antimicrob. Agents Chemother. 23:914-917) EBV, (Yao et al., 1993, Antimicrob. Agents Chemother. 37:1420-1425), CMV (Andreoni et al., 2002, J. Med. Virol. 67:33-40) and HIV (Mellors et al., 1992, Mol. Pharmacol. 41: 446-451) were performed according to the previously reported procedures. Anti-HCV activities were tested in Huh-Luc/neo cell line. Cells were seeded into 48-well plates and grown until confluent. Different concentrations of drugs were added into media (DMEM, 10% dFBS) and incubated for 3 days. At the end of 3-day treatment, medium were removed and 50 μl of Passive lysis buffer (Promega) were added. Cell lysate was shaken at room temperature for 15 min. 30 μl/well of cell lysate was transferred to another 96-well plate, 100 μl/well of luciferase activity assay substrate was added into plate and read by a luminometer (Amersham) immediately.

HBV = test: In vitro antiviral assay for HBV (Table 1); assay type: cell-based, Hepatitis B virus; conditions: Hepatitis B virus, read-out: Antiviral Activities (EC50, μM) HBV
Protocol: as §1

HCV = test: Anti-HCV activity in Huh-Luc/neo cell line, luciferase activity after 3-day treatment; assay type: cell-based, Hepatitis C virus; conditions: Hepatitis C virus, 72 h; for EC50: read-out: Antiviral Activities (EC50, μM) HCV
Protocol: as §1

HSV-1 = test: In vitro antiviral assay for HSV-1; assay type: cell-based, Herpes Simplex Virus 1; conditions: Human alphaherpesvirus 1, read-out: Antiviral Activities (EC50, μM) HSV-1
Protocol: as §1

[1] = Cell cytotoxicity assay on MT-2 cells; assay type: cell-based; conditions: human, read-out: Cytotoxity (ID50, μM) MT-2
Protocol: (§2) Cytotoxicities of test compounds on MT-2 (Mellors et al., 1992 Mol. Pharmacol. 41:446-451) and CEM (Grove et al., 1995, Cancer Res. 55:3008-3011) cells were determined according to the previously reported procedures. Hepg2 cells were seeded at a density of 10^4 cells/ml/well in 24-well plates and cultured in MEME supplemented with 10% FBS at 37° C. and 5% CO2. Each test compound at different concentrations was added on the second day of the culture and the cells were incubated for another 3 days. At the end of the incubation period, the medium was removed and 0.5 ml of 0.5% methylene blue in 50% ethanol (v/v) was added to each well and set at room temperature for 30-60 minutes. The methylene blue was removed; the plates were washed with water and allowed to air dry. Once dry, 1% sarcosyl was added to dissolve the stained cell layer. The absorbance at 595 nm was measured with a microplate reader (Molecular Devices Corp. Sunnyvale, Calif.). The cytotoxicity to CEM cell was calculated as described previously (Grove et al., 1995, Cancer Res. 55 (14): 3008-3011).

EBV = test: In vitro antiviral assay for EBV; assay type: cell-based, Epstein-Barr Virus; conditions: human gammaherpesvirus 4, read-out: Antiviral Activities (EC50, μM) EBV
Protocol: as §1

HSV-2 = test: In vitro antiviral assay for HSV-2; assay type: cell-based, Herpes Simplex Virus 2; conditions: Human alphaherpesvirus 2, read-out: Antiviral Activities (EC50, μM) HSV-2
Protocol: as §1

[2] = Cell cytotoxicity assay on CEM cells; assay type: cell-based; conditions: human, read-out: Cytotoxity (ID50, μM) CEM
Protocol: as §2

[3] = Huh-Luc/neo cells, 3 days, given as a bound only
[4] = Huh-Luc/neo cells, 3 days, read-out: HCV percent of inhibition

Compound | EC50 (HIV) [µM] | EC50 (HBV) [µM] | EC50 (HCV; [3]) [µM] | EC50 (HSV-1) [µM] | IC50 [1] [µM] | melting point | EC50 (EBV) [µM] | EC50 (HSV-2) [µM] | IC50 [2] [µM] | inhibition at 3 µM (HCV; at 3 μM, Huh-Luc/neo cells, 3 days, read-out: HCV percent of inhibition) [%] | inhibition at 10 µM (HCV; [4]) [%] | EC50 (HCV) [µM]
O=C(O)c1cc2ccc3c(c2c(-c2ccc4c(c2)OCO4)c1COCc1ccccc1)OCO3 [Compound 5, 9-Benzo[1,3]dioxol-5-yl-8-benzyloxymethyl-naphtho[1,2-d][1,3]dioxole-7-carboxylic acid] | > 48 | > 10 | > 10 | > 25 | 48 | 219 to 221 °C | > 20 | > 25 | > 50 |  |  | 
CN1Cc2cc3ccc4c(c3c(-c3ccc5c(c3)OCO5)c2C1=O)OCO4 [Compound 17, 10-Benzo[1,3]dioxol-5-yl-8-methyl-7,8-dihydro-1,3-dioxa-8-aza-dicyclopenta[a,g]naphthalen-9-one] | > 26 | > 10 |  | 14 | 26 | 242 to 244 °C | > 20 | 14 | 27 | 29 |  | 
CN1Cc2c(cc3ccc4c(c3c2-c2ccc3c(c2)OCO3)OCO4)C1=O [Compound 19, 10-Benzo[1,3]dioxol-5-yl-8-methyl-8,9-dihydro-1,3-dioxa-8-aza-dicyclopenta[a,g]naphthalen-7-one] | > 8 | 1.6 | > 3 | 0.67 | 8 | 234 to 236 °C | > 20 | 1 | 6 |  |  | 
O=C1c2cc3ccc4c(c3c(-c3ccc5c(c3)OCO5)c2CN1CCCOCc1ccccc1)OCO4 [Compound 20, 10-Benzo[1,3]dioxol-5-yl-8-(3-benzyloxy-propyl)-8,9-dihydro-1,3-dioxa-8-aza-dicyclopenta[a,g]naphthalen-7-one] | > 28 | > 20 |  | 13 | 28 |  | > 20 | > 20 | 67 |  | 85 | 
O=C1c2cc3ccc4c(c3c(-c3ccc5c(c3)OCO5)c2CN1CCCO)OCO4 [Compound 21, 10-Benzo[1,3]dioxol-5-yl-8-(3-hydroxy-propyl)-8,9-dihydro-1,3-dioxa-8-aza-dicyclopenta[a,g]naphthalen-7-one] | 5 | > 20 |  | 5 | 22 | 213 to 215 °C | > 20 | 7 | 22 |  | 58 | 
COC1=NC(=O)c2c1cc1ccc3c(c1c2-c1ccc2c(c1)OCO2)OCO3 [Compound 23, 10-Benzo[1,3]dioxol-5-yl-7-methoxy-1,3-dioxa-8-aza-dicyclopenta[a,g]naphthalen-9-one] |  |  |  |  |  | 306 to 308 °C |  |  |  |  |  | 
CN1C(=O)c2cc3ccc4c(c3c(-c3ccc5c(c3)OCO5)c2C1=O)OCO4 [Compound 23] | > 100 | > 10 |  | > 50 | > 100 |  | > 20 | > 50 | > 100 |  |  | > 10
CC(=O)NN1C(=O)c2cc3ccc4c(c3c(-c3ccc5c(c3)OCO5)c2C1=O)OCO4 [Compound 25, N-(10-Benzo[1,3]dioxol-5-yl-7,9-dioxo-7,9-dihydro-1,3-dioxa-8-aza-dicyclopenta[a,g]naphthalen-8-yl)-acetamide] | > 100 | > 10 | > 10 | > 40 | > 100 | 281 to 283 °C | > 20 | > 40 | 93 |  |  | 
CC(=O)NN1Cc2c(cc3ccc4c(c3c2-c2ccc3c(c2)OCO3)OCO4)C1=O [Compound 26, N-(10-Benzo[1,3]dioxol-5-yl-7-oxo-7,9-dihydro-1,3-dioxa-8-aza-dicyclopenta[a,g]naphthalen-8-yl)-acetamide] | > 7 | 1 | > 10 | 5 | 7 |  | 13 | 10 | 40 |  |  | 
CC(=O)NN1Cc2cc3ccc4c(c3c(-c3ccc5c(c3)OCO5)c2C1=O)OCO4 [Compound 27, N-(10-Benzo[1,3]dioxol-5-yl-9-oxo-7,9-dihydro-1,3-dioxa-8-aza-dicyclopenta[a,g]naphthalen-8-yl)-acetamide] | > 25 | > 20 |  | 17 | 25 |  | > 20 | 40 | 32 |  | 25 | 
COC(=O)c1cc2ccc3c(c2c(-c2ccc4c(c2)OCO4)c1C(=O)OC)OCO3 [Compound 30, 9-Benzo[1,3]dioxol-5-yl-naphtho[1,2-d][1,3]dioxole-7,8-dicarboxylic acid dimethyl ester] | > 28 | > 20 |  | > 50 | 28 | 157 to 159 °C | > 20 | > 50 | 50 |  | 93 | 
COC(=O)c1c(C(=O)O)cc2ccc3c(c2c1-c1ccc2c(c1)OCO2)OCO3 [Compound 31, 9-Benzo[1,3]dioxol-5-yl-naphtho[1,2-d][1,3]dioxole-7,8-dicarboxylic acid 8-methyl ester] | > 90 | > 20 | > 10 | > 50 | 90 | 273 to 275 °C | > 20 | > 50 | 74 |  |  | 
O=C(O)c1cc2ccc3c(c2c(-c2ccc4c(c2)OCO4)c1C(=O)O)OCO3 [Compound 32, 9-Benzo[1,3]dioxol-5-yl-naphtho[1,2-d][1,3]dioxole-7,8-dicarboxylic acid] | > 100 | > 20 | > 10 | > 50 | > 100 | 253 °C (dec.) | > 20 | > 50 | > 100 |  |  | 
CCOC(=O)c1c(C(=O)OCC)c(-c2ccc3c(c2)OCO3)c2c3c(ccc2c1O)OCO3 [Compound 33, 9-Benzo[1,3]dioxol-5-yl-6-hydroxy-naphtho[1,2-d][1,3]dioxole-7,8-dicarboxylic acid diethyl ester] | > 15 | > 10 |  | > 50 | 15 | 192 to 194 °C | > 10 | > 50 | 39 |  | 62 | 
CCOC(=O)c1c(C(=O)OCC)c(-c2ccc3c(c2)OCO3)c2c3c(ccc2c1OC)OCO3 [Compound 35, 9-Benzo[1,3]dioxol-5-yl-6-methoxy-naphtho[1,2-d][1,3]dioxole-7,8-dicarboxylic acid diethyl ester] | > 24 | > 20 |  | > 50 | 24 |  | > 20 | > 50 | > 100 |  | 60 | 
NC(=O)c1cc2ccc3c(c2c(-c2ccc4c(c2)OCO4)c1C(N)=O)OCO3 [Compound 36, 9-Benzo[1,3]dioxol-5-yl-naphtho[1,2-d][1,3]dioxole-7,8-dicarboxylic acid diamide] | > 100 | > 20 | > 10 | > 50 | > 100 |  | > 20 | > 50 | > 100 |  |  | 

— patent US7754718B2 (priority 2004, dated 2010)
